Measurements reported in patent US12428406B2 (PMV Pharmaceuticals, Inc., priority 2019, dated 2025).

Target: T1, p53 Y220C (Homo sapiens, UniProt P04637, Y220C)
T1 construct: The recombinant protein was a truncation mutant containing only amino acids 94-312 of p53; made in house; host or cells: E. coli
Test: In vitro DNA binding activity assay (HTRF / TR-FRET): stabilization of p53 Y220C and increase of its DNA binding activity
Assay type: biochemical
Conditions: recombinant His-tagged p53 Y220C DNA binding domain (aa 94-312), biotin-labeled consensus DNA, incubated at 27° C. or 29° C. for 60 min
In short: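 Homogeneous time-resolved fluorescence with E. coli-derived p53 Y220C and biotinylated consensus DNA. Room-temperature incubations of 15 and 20 min precede reading. SC150 denotes the compound concentration required for 50% increased DNA binding.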

T1 sequence (P04637 94-312, change not shown): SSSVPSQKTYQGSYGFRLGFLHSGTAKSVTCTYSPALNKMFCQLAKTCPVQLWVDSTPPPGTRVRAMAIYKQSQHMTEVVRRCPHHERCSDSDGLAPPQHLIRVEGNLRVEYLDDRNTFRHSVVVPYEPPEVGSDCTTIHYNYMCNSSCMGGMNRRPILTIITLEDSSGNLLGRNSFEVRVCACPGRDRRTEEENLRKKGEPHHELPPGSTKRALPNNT

Row | SMILES | SC150 (concentration of the compound required to increase the DNA binding activity by 50%)
1 | Cc1cc(S(C)(=O)=O)ccc1NCC#Cc1cc2c(N[C@H]3CC[C@H](N4CC5(COC5)C4)CC3)cccc2n1CC(F)(F)F [Compound 283A, 2-{3-[(4-methanesulfonyl-2-methylphenyl)amino]prop-1-yn-1-yl}-N-[(1R,4R)-4-{2-oxa-6-azaspiro[3.3]heptan-6-yl}cyclohexyl]-1-(2,2,2-trifluoroethyl)-1H-indol-4-amine] | + (+ = 0 μM ≤ SC150 < 0.05 μM)
2 | CS(=O)(=O)c1ccc(NCC#Cc2cc3c(N[C@H]4CC[C@H](N5CC6(COC6)C5)CC4)cccc3n2CC(F)(F)F)c(C(F)(F)F)c1 [Compound 287A, 2-(3-{[4-methane-sulfonyl-2-(trifluoro-methyl)phenyl]amino}prop-1-yn-1-yl)-N-[(1R,4R)-4-{2-oxa-6-azaspiro[3,3]heptan-6-yl}cyclohexyl]-1-(2,2,2-trifluoroethyl)-1H-indol-4-amine] | + (+ = 0 μM ≤ SC150 < 0.05 μM)
3 | CS(=O)(=O)c1ccc(NCC#Cc2cc3c(N[C@H]4CC[C@H](N5CC6(COC6)C5)CC4)cccc3n2CC(F)(F)F)c(Cl)c1 [Compound 289A, 2-{3-[(2-chloro-4-methanesulfonyl-phenyl)amino]prop-1-yn-1-yl}-N-[(1R,4R)-4-{2-oxa-6-azaspiro[3.3]heptan-6-yl}cyclo-hexyl]-1-(2,2,2-trifluo-roethyl)-1H-indol-4-amine] | + (+ = 0 μM ≤ SC150 < 0.05 μM)
4 | CNC(=O)c1ccc(NCC#Cc2cc3c(N[C@H]4CC[C@H](N5CC6(CCOCC6)C5)CC4)cccc3n2CC(F)(F)F)c(OC)c1 [Compound 295A, 3-methoxy-N-methyl-4-{[3-(4-{[(1R,4R)-4-{7-oxa-2-azaspiro[3.5]nonan-2-yl}cyclo-hexyl]amino}-1-(2,2,2-trifluoroethyl)-1H-indol-2-yl)prop-2-yn-1-yl]amino}benzamide] | + (+ = 0 μM ≤ SC150 < 0.05 μM)
5 | CNC(=O)c1ccc(NCC#Cc2cc3c(N[C@H]4CC[C@@H](N5CC6(CCOCC6)C5)CC4)cccc3n2CC(F)(F)F)c(OC)c1 [Compound 296A, 3-methoxy-N-methyl-4-{[3-(4-{[(1S,4S)-4-{7-oxa-2-azaspiro[3.5]nonan-2-yl}cyclohexyl]amino}-1-(2,2,2-trifluoroethyl)-1H-indol-2-yl)prop-2-yn-1-yl]amino} benzamide] | + (+ = 0 μM ≤ SC150 < 0.05 μM)
6 | COc1cc(S(N)(=O)=O)ccc1NCC#Cc1cc2c(N[C@H]3CC[C@@H](N4CC5(CCOCC5)C4)CC3)cccc2n1CC(F)(F)F [Compound 298A, 3-methoxy-4-{[3-(4-{[(1S,4S)-4-{7-oxa-2-azaspiro[3.5]nonan-2-yl}cyclohexyl]amino}-1-(2,2,2-trifluoroethyl)-1H-indol-2-yl)prop-2-yn-1-yl]amino}benzene-1-sulfonamide] | + (+ = 0 μM ≤ SC150 < 0.05 μM)
7 | N#CCOc1cc(S(N)(=O)=O)ccc1NCC#Cc1cc2c(N[C@H]3CC[C@H](N4CC5(CCOCC5)C4)CC3)cccc2n1CC(F)(F)F [Compound 299A, 3-(cyanomethoxy)-4-{[3-(4-{[(1R,4R)-4-{7-oxa-2-azaspiro[3.5]nonan-2-yl}cyclo-hexyl]amino}-1-(2,2,2-trifluoroethyl)-1H-indol-2-yl)prop-2-yn-1-yl]amino}benzene-1-sulfonamide] | + (+ = 0 μM ≤ SC150 < 0.05 μM)
8 | COc1cc(C(C)(C)C#N)ccc1NCC#Cc1cc2c(N[C@H]3CC[C@H](N4CC5(CCOCC5)C4)CC3)cccc2n1CC(F)(F)F [Compound 301A, 2-(3-methoxy-4-{[3-(4-{[(1R,4R)-4-{7-oxa-2-azaspiro[3.5]nonan-2-yl}cyclohexyl]amino}-1-(2,2,2-trifluoroethyl)-1H-indol-2-yl)prop-2-yn-1-yl]amino}phenyl)-2-methylpropanenitrile] | + (+ = 0 μM ≤ SC150 < 0.05 μM)
9 | COc1cc(S(=O)(=O)NC(=O)CN)ccc1NCC#Cc1cc2c(N[C@H]3CC[C@H](N4CC5(CCOCC5)C4)CC3)cccc2n1CC(F)(F)F [Compound 307A, N-((4-((3-(4-(((1R,4R)-4-(7-oxa-2-azaspiro[3.5]nonan-2-yl)cyclohexyl)amino)-1-(2,2,2-trifluoroethyl)-1H-indol-2-yl)prop-2-yn-1-yl)amino)-3-methoxyphenyl)sulfonyl)-2-aminoacetamide] | + (+ = 0 μM ≤ SC150 < 0.05 μM)
10 | COC(=O)COc1cc(S(C)(=O)=O)ccc1NCC#Cc1cc2c(N[C@H]3CC[C@H](N4CC5(CCOCC5)C4)CC3)cccc2n1CC(F)(F)F [Compound 309A, methyl 2-(2-((3-(4-((4-(7-oxa-2-azaspiro[3.5]nonan-2-yl)cyclohexyl)amino)-1-(2,2,2-trifluoroethyl)-1H-indol-2-yl)prop-2-yn-1-yl)amino)-5-(methylsulfonyl)phenoxy)acetate] | + (+ = 0 μM ≤ SC150 < 0.05 μM)
11 | CS(=O)(=O)c1ccc(NCC#Cc2cc3c(N[C@H]4CC[C@H](N5CC6(CCOCC6)C5)CC4)cccc3n2CC(F)(F)F)c(OCC(=O)O)c1 [Compound 311A, 2-(2-((3-(4-(((1R,4R)-4-(7-oxa-2-azaspiro[3.5]nonan-2-yl)cyclohexyl)amino)-1-(2,2,2-trifluoroethyl)-1H-indol-2-yl)prop-2-yn-1-yl)amino)-5-(methylsulfonyl)phenoxy)acetic acid] | ++ (++ = 0.05 μM ≤ SC150 < 0.1 μM)

Results, then the compound that gave them:

Row | SC150 (concentration of the compound required to increase the DNA binding activity by 50%) | SMILES
12 | + (+ = 0 μM ≤ SC150 < 0.05 μM) | CS(=O)(=O)c1ccc(NCC#Cc2cc3c(N[C@H]4CC[C@H](N5CC6(COC6)C5)CC4)cccc3n2CC(F)(F)F)c(OC(F)(F)F)c1 [Compound 285A, 2-(3-{[4-methanesulfonyl-2-(trifluoromethoxy)phenyl]amino}prop-1-yn-1-yl)-N-[(1R,4R)-4-{2-oxa-6-azaspiro[3.3]heptan-6-yl}cyclohexyl]-1-(2,2,2-trifluoroethyl)-1H-indol-4-amine]
13 | + (+ = 0 μM ≤ SC150 < 0.05 μM) | COc1cc(S(C)(=O)=O)ccc1NCC#Cc1cc2c(N[C@H]3CC[C@@H](N4CC5(CCOCC5)C4)CC3)cccc2n1CC(F)(F)F [Compound 293A, 2-{3-[(4-methane-sulfonyl-2-methoxy-phenyl)amino]prop-1-yn-1-yl}-N-[(1S,4S)-4-{7-oxa-2-azaspiro[3.5]nonan-2-yl}cyclo-hexyl]-1-(2,2,2-trifluoro-ethyl)-1H-indol-4-amine]
14 | + (+ = 0 μM ≤ SC150 < 0.05 μM) | COc1cc(S(C)(=O)=O)ccc1NCC#Cc1cc2c(N[C@H]3CC[C@H](N4CC5(CCOCC5)C4)CC3)cccc2n1CC(F)(F)F [Compound 294A, 2-{3-[(4-methane-sulfonyl-2-methoxy-phenyl)amino]prop-1-yn-1-yl}-N-[(1R,4R)-4-{7-oxa-2-azaspiro[3.5]nonan-2-yl}cyclo-hexyl]-1-(2,2,2-trifluoro-ethyl)-1H-indol-4-amine]
15 | + (+ = 0 μM ≤ SC150 < 0.05 μM) | COc1cc(S(N)(=O)=O)ccc1NCC#Cc1cc2c(N[C@H]3CC[C@H](N4CC5(CCOCC5)C4)CC3)cccc2n1CC(F)(F)F [Compound 297A, 3-methoxy-4-{[3-(4-{[(1R,4R)-4-{7-oxa-2-azaspiro[3.5]nonan-2-yl}cyclohexyl]amino}-1-(2,2,2-trifluoroethyl)-1H-indol-2-yl)prop-2-yn-1-yl]amino}benzene-1-sulfonamide]
16 | + (+ = 0 μM ≤ SC150 < 0.05 μM) | N#CCOc1cc(S(N)(=O)=O)ccc1NCC#Cc1cc2c(N[C@H]3CC[C@@H](N4CC5(CCOCC5)C4)CC3)cccc2n1CC(F)(F)F [Compound 300A, 3-(cyanomethoxy)-4-{[3-(4-{[(1S,4S)-4-{7-oxa-2-azaspiro[3.5]nonan-2-yl}cyclo-hexyl]amino}-1-(2,2,2-trifluoroethyl)-1H-indol-2-yl)prop-2-yn-1-yl]amino}benzene-1-sulfonamide]
17 | + (+ = 0 μM ≤ SC150 < 0.05 μM) | CS(=O)(=O)c1ccc(NCC#Cc2cc3c(N[C@H]4CC[C@H](N5CC6(CCOCC6)C5)CC4)cccc3n2CC(F)(F)F)c(OCC#N)c1 [Compound 303A, 2-(5-methanesulfonyl-2-{[3-(4-{[(1R,4R)-4-{7-oxa-2-azaspiro[3.5]nonan-2-yl}cyclohexyl]amino}-1-(2,2,2-trifluoroethyl)-1H-indol-2-yl)prop-2-yn-1-yl]amino}phenoxy)acetonitrile]
18 | + (+ = 0 μM ≤ SC150 < 0.05 μM) | CS(=O)(=O)c1ccc(NCC#Cc2cc3c(N[C@H]4CC[C@@H](N5CC6(CCOCC6)C5)CC4)cccc3n2CC(F)(F)F)c(OCC#N)c1 [Compound 304A, 2-(5-methanesulfonyl-2-{[3-(4-{[(1S,4S)-4-{7-oxa-2-azaspiro[3.5]nonan-2-yl}cyclohexyl]amino}-1-(2,2,2-trifluoroethyl)-1H-indol-2-yl)prop-2-yn-1-yl]amino}phenoxy)acetonitrile]
19 | + (+ = 0 μM ≤ SC150 < 0.05 μM) | COc1cc(S(=O)(=O)NC(C)=O)ccc1NCC#Cc1cc2c(N[C@H]3CC[C@H](N4CC5(CCOCC5)C4)CC3)cccc2n1CC(F)(F)F [Compound 305A, N-((4-((3-(4-(((1R,4R)-4-(7-oxa-2-azaspiro[3.5]nonan-2-yl)cyclohexyl)amino)-1-(2,2,2-trifluoroethyl)-1H-indol-2-yl)prop-2-yn-1-yl)amino)-3-methoxyphenyl)sulfonyl)acetamide]
